{
  "source": "patent US20230105108A1",
  "about": "“COMPOUNDS FOR THE TREATMENT OF BACTERIAL INFECTIONS AND POTENTIATION OF ANTIBIOTICS” (GEORGIA STATE UNIVERSITY RESEARCH FOUNDATION, INC., priority 2019, published 2023)",
  "format_in_all_cases": "cell-based",
  "key": {"E. coli (ATCC 25922)": {"tested_on": "E. coli (ATCC 25922)", "test": "MIC determination, sensitization fold and FIC index on E. coli", "conditions": "for MIC of AB with MD-124: MD-124 concentration 5 μg/ml; for MIC: Escherichia coli, ATCC25922, 24 h; for Sensitization: compound up to 25 μM", "description": "Bacteria culture and MICs determination: Gram-negative bacteria were cultured in Mueller Hinton II cation-adjusted broth. Gram-positive bacteria were cultured in LB broth. Mycobacterium smegmatis was cultured in Middlebrook 7H9 Broth. MICs of antibiotics itself were determined by performing two-fold serial dilutions of antibiotics. MICs of antibiotics in the presence of bacterial sensitizers were determined by performing two-fold serial dilutions of antibiotics with or without a constant concentration of bacterial sensitizers. The MICs tests were performed on 96-well plates with a final volume of 200 μl Mueller Hinton II cation-adjusted broth in each well. Each well was inoculated with 5×10^5 CFU/ml bacteria and was incubated for 24 h at 37° C. with continuous shaking of 200 rpm. The bacterial density was then determined by OD600. Bacterial growth %=OD600 of antibiotic treatment group/OD600 of antibiotic non-treatment group. MICs was determined as the concentrations that inhibit more than 90% of bacteria growth.\nSensitization fold determination and FIC index calculations: Sensitization fold=MIC of antibiotic only/MIC of antibiotic with bacterial sensitizer. […] Since the MICs were determined by performing two-fold serial dilutions of antibiotic, so the sensitization fold can is the times of 2.\nFIC index between compound a and b was calculated according to the formula below: […]\nFIC≤0.5: Synergy; FIC between 0.5 and 1: Additive; FIC between 1 and […]: no interaction; FIC >4: antagonism.\nBacteria strains (as indicated in Table 5B) were cultured with rifampicin at various concentrations in the presence or absence of 10 μM of the indicated compound for 20 h at 37° C. The MIC, sensitization, cytotoxicity, and MIC on mycobacteria were tested according to methods described herein. […] The sensitization activities of compounds on MRSA were tested using rifampicin. The sensitization activities of compounds on E. coli were tested using rifampicin."}, "[1]": {"tested_on": "NDM-1 expressing E. coli strain", "test": "microbe, parasite or virus in culture"}, "[2]": {"tested_on": "mcr-1 over-expressing E. coli strains", "test": "microbe, parasite or virus in culture", "conditions": "Escherichia coli"}, "B. subtilis": {"tested_on": "B. subtilis", "test": "MIC determination and sensitization fold on B. subtilis", "conditions": "B. subtilis; for MIC: Bacillus subtilis, 24 h, compound alone, read-out: MIC"}, "[3]": {"test": "Cytotoxicity in H9c2 cells (CCK-8)", "conditions": "rat, H9c2 cells; H9c2 cell line", "description": "The cytotoxicity in H9c2 (ATCC®CRL-1446™) cells was also determined. The H9c2 cells were maintained in DMEM (Dulbecco's Modified Eagle's Medium) supplemented with 10% fetal bovine serum (MidSci; S01520HI) and 1% penicillin-streptomycin (Sigma-Aldrich; P4333) at 37° C. with 5% CO2. The H9c2 cells were seeded in 96-well plate one day before the experiment. Different concentrations of di-amidine compounds were added into the H9c2 cells. The cells were then incubated with the compounds for 24 hours at 37° C. with 5% CO2. The cell viability was tested by the CCK-8. Specifically, after 24 hour incubation, 10 μL CCK-8 was added to each well. After 3 hours incubation at 37° C., the absorbance at 450 nm was recorded by a plate reader."}, "[4]": {"conditions": "E. coli towards the antibiotic, MD-124 5 μg/ml"}, "[5]": {"conditions": "E. coli (wild type), antibiotic alone, read-out: MIC of AB only"}, "[6]": {"conditions": "E. coli, compound alone, read-out: MIC"}},
  "note": "Structures can show the parent of a compound that is named as a salt. Where two headings read alike, the source gives them in different places.",
  "data": [
    {"smiles": "CC1(C)S[C@@H]2[C@H](NC(=O)[C@H](N)c3ccccc3)C(=O)N2[C@H]1C(=O)O", "note": "[Ampicillin]", "values": [
      {"measurement": "MIC on wild-type E.coli", "setting": "E. coli (ATCC 25922); antibiotic alone (Table 14)", "value": 6, "unit": "µg/mL"},
      {"measurement": "MIC of AB with 5 μg/ml MD-124", "setting": "[1]; NDM-1 expressing E. coli", "value": 300, "unit": "µg/mL"},
      {"measurement": "Sensitization fold with 5 μg/ml MD-124", "setting": "[1]; NDM-1 expressing E. coli towards the antibiotic", "value": ">1", "unit": "fold"},
      {"measurement": "MFC of AB only", "setting": "[1]; NDM-1 expressing E. coli, antibiotic alone", "value": ">300", "unit": "µg/mL"},
      {"measurement": "MIC on NDM-1 over-expression E. coli", "setting": "[1]; antibiotic alone (Table 14)", "value": ">300", "unit": "µg/mL"}
    ]},
    {"smiles": "CC[C@H]1OC(=O)[C@H](C)[C@@H](O[C@H]2C[C@@](C)(OC)[C@@H](O)[C@H](C)O2)[C@H](C)[C@@H](O[C@@H]2O[C@H](C)C[C@H](N(C)C)[C@H]2O)[C@](C)(O)C[C@@H](C)CN(C)[C@H](C)[C@@H](O)[C@]1(C)O", "note": "[Azithromycin, reference compound]", "values": [
      {"measurement": "Sensitization fold", "setting": "E. coli (ATCC 25922); [4]", "value": 16, "unit": "fold"},
      {"measurement": "MIC of AB with MD-124", "setting": "E. coli (ATCC 25922); E. coli", "value": 0.4, "unit": "µg/mL"},
      {"measurement": "MIC", "setting": "E. coli (ATCC 25922); [5]", "value": 6.2, "unit": "µg/mL"}
    ]},
    {"smiles": "N[C@@H]1CCCCN(c2c(F)cc3c(=O)c(C(=O)O)cn(C4CC4)c3c2Cl)C1", "note": "[Besifloxacin, reference compound]", "values": [
      {"measurement": "Sensitization fold", "setting": "E. coli (ATCC 25922); [4]", "value": 8, "unit": "fold"},
      {"measurement": "MIC of AB with MD-124", "setting": "E. coli (ATCC 25922); E. coli", "value": 0.0125, "unit": "µg/mL"},
      {"measurement": "MIC", "setting": "E. coli (ATCC 25922); [5]", "value": 0.1, "unit": "µg/mL"}
    ]},
    {"smiles": "CC[C@H]1OC(=O)[C@H](C)[C@@H](O[C@H]2C[C@@](C)(OC)[C@@H](O)[C@H](C)O2)[C@H](C)[C@@H](O[C@@H]2O[C@H](C)C[C@H](N(C)C)[C@H]2O)[C@](C)(OC)C[C@@H](C)C(=O)[C@H](C)[C@@H](O)[C@]1(C)O", "note": "[Clarithromycin]", "values": [
      {"measurement": "MIC", "setting": "[2]; mcr-1 over-expression E. coli strain (MIC of polymyxin B 30 μg/ml), read-out: MIC of AB only", "value": 25, "unit": "µg/mL"},
      {"measurement": "MIC", "setting": "[2]; read-out: MIC of AB with 5 μg/ml MD-124, mcr-1 over-expression E. coli strain (MIC of polymyxin B 30 μg/ml)", "value": "≤ 0.2", "unit": "µg/mL"}
    ]},
    {"smiles": "Cc1onc(-c2ccccc2Cl)c1C(=O)N[C@@H]1C(=O)N2[C@@H]1SC(C)(C)[C@@H]2C(=O)O", "note": "[Cloxacillin, reference compound]", "values": [
      {"measurement": "Sensitization fold", "setting": "E. coli (ATCC 25922); [4]", "value": ">4", "unit": "fold"},
      {"measurement": "MIC of AB with MD-124", "setting": "E. coli (ATCC 25922); E. coli", "value": 75, "unit": "µg/mL"},
      {"measurement": "MIC", "setting": "E. coli (ATCC 25922); [5]", "value": "> 300", "unit": "µg/mL"}
    ]},
    {"smiles": "N=C(N)c1ccc(OCOc2ccc(C(=N)N)cc2)cc1", "note": "[DB1824]", "values": [
      {"measurement": "Sensitization", "setting": "E. coli (ATCC 25922); E. coli, rifampicin", "value": "No effect up to 25 μM"},
      {"measurement": "MIC", "setting": "E. coli (ATCC 25922); [6]", "value": "> 100", "unit": "µM"},
      {"measurement": "Sensitization fold", "setting": "B. subtilis; erythromycin, compound at 12.5 μM", "value": "2-fold at 12.5 μM,"},
      {"measurement": "MIC", "setting": "B. subtilis", "value": 12.5, "unit": "µM"},
      {"measurement": "CC50 at 24 h", "setting": "[3]", "value": "> 100", "unit": "µM"}
    ]},
    {"smiles": "N=C(N)c1ccc(OCCCCCCOc2ccc(C(=N)N)cc2)cc1", "note": "[DB2362]", "values": [
      {"measurement": "Sensitization fold", "setting": "E. coli (ATCC 25922); E. coli, rifampicin, compound at 25 μM", "value": "8-fold at 25 μM;"},
      {"measurement": "MIC", "setting": "E. coli (ATCC 25922); [6]", "value": 50, "unit": "µM"},
      {"measurement": "Sensitization fold", "setting": "B. subtilis; erythromycin, compound at 6 μM", "value": "4-fold at 6 μM"},
      {"measurement": "CC50 at 24 h", "setting": "[3]", "value": 25, "unit": "µM"}
    ]},
    {"smiles": "N=C(N)c1ccc(OCc2cccc(COc3ccc(C(=N)N)cc3)n2)cc1", "note": "[DB2447]", "values": [
      {"measurement": "Sensitization", "setting": "E. coli (ATCC 25922); E. coli, rifampicin", "value": "No effect up to 25 μM"},
      {"measurement": "MIC", "setting": "E. coli (ATCC 25922); [6]", "value": 100, "unit": "µM"},
      {"measurement": "Sensitization fold", "setting": "B. subtilis; erythromycin, compound at 2 μM", "value": "No effect at 2 μM."},
      {"measurement": "CC50 at 24 h", "setting": "[3]", "value": "> 100", "unit": "µM"}
    ]},
    {"smiles": "N=C(N)c1ccc(OCc2cccc(COc3ccc(C(N)=O)cc3)n2)cc1", "note": "[DB2449]", "values": [
      {"measurement": "Sensitization", "setting": "E. coli (ATCC 25922); E. coli, rifampicin", "value": "No effect up to 25 μM"},
      {"measurement": "MIC", "setting": "E. coli (ATCC 25922); [6]", "value": "> 100", "unit": "µM"},
      {"measurement": "Sensitization", "setting": "B. subtilis; erythromycin, compound up to 25 μM", "value": "No effect up to 25 μM"},
      {"measurement": "MIC", "setting": "B. subtilis", "value": "> 50", "unit": "µM"},
      {"measurement": "CC50 at 24 h", "setting": "[3]", "value": "> 100", "unit": "µM"}
    ]},
    {"smiles": "Fc1c(COc2ccc(C3=NCCN3)cc2)cccc1COc1ccc(C2=NCCN2)cc1", "note": "[DB2510, 1,3-Bis {(4-(2-imidazolino))-phenoxymethyl}-2-fluorobenzene dihydrochloride]", "values": [
      {"measurement": "Sensitization", "setting": "E. coli (ATCC 25922); E. coli, rifampicin", "value": "No effect up to 25 μM"},
      {"measurement": "MIC", "setting": "E. coli (ATCC 25922); [6]", "value": "> 50", "unit": "µM"},
      {"measurement": "CC50 at 24 h", "setting": "[3]", "value": 25, "unit": "µM"}
    ]},
    {"smiles": "c1cc(COc2ccc(C3=NCCN3)cc2)cc(COc2ccc(C3=NCCN3)cc2)c1", "note": "[DB2538, 1,3-Bis {(4-(2-imidazolino))-phenoxymethyl}-benzene dihydrochloride]", "values": [
      {"measurement": "Sensitization", "setting": "E. coli (ATCC 25922); E. coli, rifampicin", "value": "No effect up to 25 μM"},
      {"measurement": "MIC", "setting": "E. coli (ATCC 25922); [6]", "value": "> 50", "unit": "µM"},
      {"measurement": "Sensitization fold", "setting": "B. subtilis; erythromycin, compound at 12 μM", "value": "4-fold at 12 μM"},
      {"measurement": "MIC", "setting": "B. subtilis", "value": "> 50", "unit": "µM"},
      {"measurement": "CC50 at 24 h", "setting": "[3]", "value": "< 12.5", "unit": "µM"}
    ]},
    {"smiles": "Fc1cc(C2=NCCN2)ccc1OCc1cccc(COc2ccc(C3=NCCN3)cc2F)c1F", "note": "[DB2554, 1,3-Bis {4-(2-imidazolino)-2-fluoro)-phenoxy methyl}-2-fluorobenzene dihydrochloride]", "values": [
      {"measurement": "Sensitization", "setting": "E. coli (ATCC 25922); E. coli, rifampicin", "value": "No effect up to 25 μM"},
      {"measurement": "MIC", "setting": "E. coli (ATCC 25922); [6]", "value": "> 50", "unit": "µM"},
      {"measurement": "CC50 at 24 h", "setting": "[3]", "value": 50, "unit": "µM"}
    ]}
  ]
}
